ChEMBL document CHEMBL1152498, “Minor structural differences of monomethine cyanine derivatives yield strong variation in their interactions with DNA, RNA as well as on their in vitro antiproliferative activity” (Bioorg Med Chem, 2009)
Calls of active or inactive are those of the source. No cut-off for these calls is given here.

Tests used:
[1] = test system: Calf thymus DNA; experiment: Binding affinity to calf thymus double helix DNA assessed as thermal denaturation-associated change in melting temperature at pH 7 by tangent method; type: nucleic-acid assay; conditions: Bos taurus
[2] = test system: Nucleic Acid; experiment: Binding affinity to poly C single stranded RNA at pH 7 by fluorometric titration method; type: nucleic-acid assay
[3] = Cytotoxicity against human Hep2 cells after 72 hrs by MTT assay; type: cell-based; conditions: HEp-2, 72 h
[4] = test system: Caco-2; experiment: Cytotoxicity against human Caco-2 cells after 72 hrs by MTT assay; type: functional, cell-based; conditions: Caco-2, 72 h
[5] = test system: SW-620; experiment: Cytotoxicity against human SW620 cells after 72 hrs by MTT assay; type: functional, cell-based; conditions: SW-620, 72 h
[6] = test system: Nucleic Acid; experiment: Binding affinity to poly A single stranded RNA at pH 7 by fluorometric titration method; type: nucleic-acid assay
[7] = test system: Jurkat; experiment: Cytotoxicity against human Jurkat cells after 72 hrs by MTT assay; type: functional, cell-based
[8] = test system: Calf thymus DNA; experiment: Binding affinity to calf thymus double stranded DNA at pH 7 by fluorometric titration method; type: nucleic-acid assay; conditions: Bos taurus
[9] = test system: NCI-H358; experiment: Cytotoxicity against human NCI-H358 cells after 72 hrs by MTT assay; type: functional, cell-based; conditions: NCI-H358, 72 h
[10] = Cytotoxicity against HAEC after 72 hrs by MTT assay; set-up: species or system Homo sapiens
[11] = test system: HT-29; experiment: Cytotoxicity against human HT-29 cells after 72 hrs by MTT assay; type: functional, cell-based; conditions: HT-29, 72 h
[12] = test system: Nucleic Acid; experiment: Binding affinity to double stranded RNA at pH 7 by fluorometric titration method; type: nucleic-acid assay
[13] = test system: HuT78; experiment: Cytotoxicity against human HUT78 cells after 72 hrs by MTT assay; type: functional, cell-based; conditions: HuT78, 72 h
[14] = test system: Nucleic Acid; experiment: Binding affinity to poly A-poly U assessed as thermal denaturation-associated change in melting temperature at pH 7 by tangent method; type: nucleic-acid assay
[15] = test system: HeLa; experiment: Cytotoxicity against human HeLa cells after 72 hrs by MTT assay; type: functional, cell-based
[16] = test system: Nucleic Acid; experiment: Binding affinity to poly G single stranded RNA at pH 7 by fluorometric titration method; type: nucleic-acid assay
[17] = test system: Nucleic Acid; experiment: Binding affinity to poly U single stranded RNA at pH 7 by fluorometric titration method; type: nucleic-acid assay
[18] = test system: K562; experiment: Cytotoxicity against human K562 cells after 72 hrs by MTT assay; type: functional, cell-based; conditions: K562, 72 h
[19] = Cytotoxicity against human lymphocytes after 72 hrs by MTT assay; type: cell-based; conditions: Lymphocyte
[20] = test system: MIA PaCa-2; experiment: Cytotoxicity against human MIAPaCa2 cells after 72 hrs by MTT assay; type: functional, cell-based; conditions: MIA PaCa-2, 72 h
[21] = test system: Nucleic Acid; experiment: Binding affinity to poly A-poly U at pH 7 by fluorometric titration method; type: nucleic-acid assay
[22] = test system: Nucleic Acid; experiment: Binding affinity to nuclear DNA in human HeLa cells at 0.1 uM after 60 mins by DAPI staining-based fluorescence microscopy; type: cell-based
[23] = test system: HeLa; experiment: Cytotoxicity against human HeLa cells at 0.1 uM after 60 mins by DAPI staining-based visible light microscopy; type: functional, cell-based

Row | ΔTm [1] [°C] | Activity [6] | Activity [12] | ΔTm [14] [°C] | log Ks [2] | log Ks [8] | log Ks [16] | log Ks [17] | SMILES | IC50 [3] [nM] | IC50 [4] [nM] | IC50 [5] [nM] | IC50 [7] [nM] | IC50 [9] [nM] | IC50 [10] [nM] | IC50 [11] [nM] | IC50 [13] [nM] | IC50 [15] [nM] | IC50 [18] [nM] | IC50 [19] [nM] | IC50 [20] [nM] | also measured
1 | 4.1 |  | Active | 19.5 | < 4 | 5.1 | > 6 | < 4 | CC1=C/C(=C/c2oc3ccccc3[n+]2C)C(C#N)=C2Sc3ccccc3N12.[O-][Cl+3]([O-])([O-])[O-] | 5500 | 9600 | 6800 | 3900 | 2400 | 50100 | 5900 | 500 | 8200 | 50 | 100 | 2200 | log Ks [6]: 6.2; log Ks [21]: 6.8
2 | 3 | Active | Active | 0 | < 4 | 4.5 | > 6 | < 4 | COc1ccc2c(c1)SC1=N/C(=C\c3sc4ccccc4[n+]3C)C=C(C)N12.[O-][Cl+3]([O-])([O-])[O-] | 500 | 800 | 200 | 100 | 600 | 3300 | 500 | 10 | 500 | 1 | 100 | 60 | log Ks [21]: 4.2; Activity [22]: inactive; Activity [23]: inactive
3 | 2.7 | Active | Active | 0 | < 4 | 5 | > 6 | < 4 | COc1ccc2c(c1)SC1=N/C(=C\c3oc4ccccc4[n+]3C)C=C(C)N12.[O-][Cl+3]([O-])([O-])[O-] | 700 | 1000 | 600 | 500 | 800 | 1100 | 500 | 100 | 2100 | 1 | 40 | 500 | Activity [22]: inactive; Activity [23]: inactive
4 | 4 | Active | Active | 0 | < 4 | 4.7 | > 6 | < 4 | CCOc1ccc2c(c1)SC1=N/C(=C\c3oc4ccccc4[n+]3C)C=C(C)N12.[O-][Cl+3]([O-])([O-])[O-] | 500 | 800 | 100 | 90 | 100 | 1000 | 600 | 50 | 2000 | 1 | 10 | 100 | log Ks [21]: 4.5
5 | 0.8 | Active | Active | 0 | < 4 | 4.6 | > 6 | < 4 | CC1=C/C(=C/c2oc3ccccc3[n+]2C)N=C2Sc3cc(OCCO)ccc3N12.[O-][Cl+3]([O-])([O-])[O-] | 6800 | 40000 | 5200 | 6600 | 9000 | 70000 | 7200 | 700 | 80000 | 70 | 590 | 8500 | log Ks [21]: 4.3

Further lines, the molecule ahead of its results:

Row | SMILES | ΔTm [1] [°C] | Activity [6] | Activity [12] | ΔTm [14] [°C] | log Ks [2] | log Ks [8] | log Ks [16] | log Ks [17] | IC50 [3] [nM] | IC50 [4] [nM] | IC50 [5] [nM] | IC50 [7] [nM] | IC50 [9] [nM] | IC50 [10] [nM] | IC50 [11] [nM] | IC50 [13] [nM] | IC50 [15] [nM] | IC50 [18] [nM] | IC50 [19] [nM] | IC50 [20] [nM] | also measured
6 | CC1=C/C(=C/c2sc3ccccc3[n+]2C)N=C2C=CC=CN12.[O-][Cl+3]([O-])([O-])[O-] | 1.9 | inactive | inactive | 10.4 |  |  |  |  | 3600 | 10100 | 7000 | 1300 | 2000 | 9600 | 5200 | 200 | 9900 | 90 | 600 | 1800 | Activity [2]: inactive; Activity [8]: inactive; Activity [16]: inactive; Activity [17]: inactive
7 | CC1=C/C(=C/c2oc3ccccc3[n+]2C)N=C2Sc3cc(Cl)ccc3N12.[O-][Cl+3]([O-])([O-])[O-] | 1 | Active | Active | 0 | < 4 | 4.6 | > 6 | < 4 | 7000 | 8200 | 5800 | 520 | 1100 | 50300 | 5100 | 60 | 3900 | 60 | 90 | 2100 | log Ks [21]: 4.5
8 | CC1=C/C(=C/c2sc3ccccc3[n+]2C)N=C2Sc3cc(OCCO)ccc3N12.[O-][Cl+3]([O-])([O-])[O-] | 1.3 | Active | Active | 0 | < 4 | 4.8 | > 6 | < 4 | 930 | > 100000 | 550 | 900 | 2100 | > 200000 | 1100 | 500 | 80000 | 60 | 1200 | 510 | log Ks [21]: 4.5
